# Measurements from patent US20250179078A1, “INHIBITORS OF NLRP3” (PTC THERAPEUTICS, INC., priority 2022, published 2025).
# Target: T1, NLRP3 (Homo sapiens, UniProt Q96P20)
# T1 construct: host or cells: THP-1 cells differentiated with PMA
# Experiment: IL-1β Secretion Assay (NLRP3-dependent IL1β secretion in THP1 cells)
# Format: cell-based
# Conditions: PMA-differentiated THP-1 cells; compounds incubated 20 h; 2.5 μM Nigericin 3 h; HTRF IL-1β readout; read-out: IC50 IL-1β Inhibition
# How it was run: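 THP-1 cells differentiated with 100 ng/mL PMA for 24 h, then given compound (7-point 3-fold series, 1:200 from DMSO) for 20 h in RPMI+5% FBS. NLRP3 activated with 2.5 μM nigericin for 3 h; secreted IL-1β measured by HTRF; IC50 from logistic fit of % inhibition.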
# T1 sequence (Q96P20 whole entry): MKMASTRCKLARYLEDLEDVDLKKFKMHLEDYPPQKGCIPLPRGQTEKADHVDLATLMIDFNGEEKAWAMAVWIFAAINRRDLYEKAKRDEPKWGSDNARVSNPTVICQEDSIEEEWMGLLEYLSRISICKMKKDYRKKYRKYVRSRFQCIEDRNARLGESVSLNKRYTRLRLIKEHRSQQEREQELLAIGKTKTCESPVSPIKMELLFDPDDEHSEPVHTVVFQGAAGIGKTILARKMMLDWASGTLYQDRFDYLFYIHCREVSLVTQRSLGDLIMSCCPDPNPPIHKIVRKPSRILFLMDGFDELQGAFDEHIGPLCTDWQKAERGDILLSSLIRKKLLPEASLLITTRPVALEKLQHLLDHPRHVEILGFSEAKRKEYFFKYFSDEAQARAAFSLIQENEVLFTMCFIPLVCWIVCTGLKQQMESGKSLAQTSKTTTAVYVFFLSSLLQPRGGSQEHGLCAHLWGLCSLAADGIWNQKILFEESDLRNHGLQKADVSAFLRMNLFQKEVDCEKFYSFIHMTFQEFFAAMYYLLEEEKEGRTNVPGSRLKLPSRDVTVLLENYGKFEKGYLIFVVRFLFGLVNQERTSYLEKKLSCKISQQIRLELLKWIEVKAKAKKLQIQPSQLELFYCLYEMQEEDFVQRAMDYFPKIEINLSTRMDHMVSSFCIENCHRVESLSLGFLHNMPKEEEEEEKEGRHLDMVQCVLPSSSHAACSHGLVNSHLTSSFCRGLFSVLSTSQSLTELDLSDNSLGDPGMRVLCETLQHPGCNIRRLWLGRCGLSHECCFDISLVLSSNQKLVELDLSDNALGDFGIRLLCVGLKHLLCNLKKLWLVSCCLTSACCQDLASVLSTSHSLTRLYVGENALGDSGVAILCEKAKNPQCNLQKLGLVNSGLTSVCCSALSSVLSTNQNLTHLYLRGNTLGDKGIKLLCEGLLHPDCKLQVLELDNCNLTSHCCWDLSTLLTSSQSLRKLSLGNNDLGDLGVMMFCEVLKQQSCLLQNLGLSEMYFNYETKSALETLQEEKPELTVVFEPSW
row,Compound,IC50 [nM]
1,"COc1ccc(-c2nnc(N[C@H]3C[C@](C)(CO)C3)n3cncc23)c(CC(F)(F)F)c1 [Compound 336, [(1r,3r)-3-({1-[4-methoxy-2-(2,2,2-trifluoroethyl)phenyl]imidazo[1,5-d][1,2,4]triazin-4-yl}amino)-1-methylcyclobutyl]methanol]",10 to 100
2,"O=C1NCCC1Nc1nnc(-c2ccc(C(F)(F)F)cc2CC(F)(F)F)c2cncn12 (stereo not drawn) [Compound 265, 3-({1-[2-(2,2,2-trifluoroethyl)-4-(trifluoromethyl)phenyl]imidazo[1,5-d][1,2,4]triazin-4-yl}amino)pyrrolidin-2-one]",< 1
3,"Cc1cc2c(-c3ccc(C(F)(F)F)cc3CC(F)(F)F)nnc(N[C@H]3C[C@@](C)(O)C3)n2n1 [Compound 388, (1s,3s)-1-methyl-3-({2-methyl-4-[2-(2,2,2-trifluoroethyl)-4-(trifluoromethyl)phenyl]pyrazolo[1,5-d][1,2,4]triazin-7-yl}amino)cyclobutan-1-ol]",1 to 10
4,"Cc1ccc(-c2nnc(N[C@@H]3CCCN(CCO)C3)n3cncc23)c(OC(F)(F)F)c1 [Compound 355, 2-[(3R)-3-({1-[4-methyl-2-(trifluoromethoxy)phenyl]imidazo[1,5-d][1,2,4]triazin-4-yl}amino)piperidin-1-yl]ethan-1-ol]",10 to 100
5,CC(Nc1nnc(-c2ccc(OC(F)F)cc2OC(F)(F)F)c2cncn12)c1cccc(O)c1 (stereo not drawn) [Compound 259],< 1
6,"COc1ccc(-c2nnc(N[C@@H]3CCCN(C)C3)n3cccc23)c(C)c1 [Compound 26, 1-(4-methoxy-2-methylphenyl)-N-[(3R)-1-methylpiperidin-3-yl]pyrrolo[1,2-d][1,2,4]triazin-4-amine]",10 to 100
7,"O[C@H]1COCC[C@H]1Nc1nnc(-c2ccc(C(F)(F)F)cc2CC(F)(F)F)c2cccn12 [Compound 114, (3R,4R)-4-({1-[2-(2,2,2-trifluoroethyl)-4-(trifluoromethyl)phenyl]pyrrolo[1,2-d][1,2,4]triazin-4-yl}amino)oxan-3-ol]",1 to 10
8,"C[C@]1(O)C[C@@H](Nc2nnc(-c3ccc(C4CC4)cc3OC(F)F)c3cncn23)C1 [Compound 345, (1s,3s)-3-({1-[4-cyclopropyl-2-(difluoromethoxy)phenyl]imidazo[1,5-d][1,2,4]triazin-4-yl}amino)-1-methylcyclobutan-1-ol]",1 to 10
9,"FC(F)(F)Cc1cc(C(F)(F)F)ccc1-c1nnc(Nc2cc[nH]n2)n2cccc12 [Compound 97, N-(1H-pyrazol-3-yl)-1-[2-(2,2,2-trifluoroethyl)-4-(trifluoromethyl)phenyl]pyrrolo[1,2-d][1,2,4]triazin-4-amine]",10 to 100
10,"C[C@]1(O)C[C@@H](Nc2nnc(-c3ccc(Br)cc3OC(F)F)c3cncn23)C1 [Compound 199, (1s,3s)-3-({1-[4-bromo-2-(difluoromethoxy)phenyl]imidazo[1,5-d][1,2,4]triazin-4-yl}amino)-1-methylcyclobutan-1-ol]",1 to 10
11,"O=C1NCCC1Nc1nnc(-c2ccc(C(F)(F)F)cc2C(F)(F)F)c2cncn12 (stereo not drawn) [Compound 294, 3-({1-[2,4-bis(trifluoromethyl)phenyl]imidazo[1,5-d][1,2,4]triazin-4-yl}amino)pyrrolidin-2-one]",1 to 10
12,"CCN1CCC[C@@H](Nc2nnc(-c3ccc(Cl)cc3OC(F)F)c3cncn23)C1 [Compound 191, 1-[4-chloro-2-(difluoromethoxy)phenyl]-N-[(3R)-1-ethylpiperidin-3-yl]imidazo[1,5-d][1,2,4]triazin-4-amine]",< 1
13,"COc1ccc(-c2nnc(NC(C)c3cccc(O)c3)n3ccc(F)c23)c(C(F)(F)F)c1 (stereo not drawn) [Compound 149, 3-[1-({8-fluoro-1-[4-methoxy-2-(trifluoromethyl)phenyl]pyrrolo[1,2-d][1,2,4]triazin-4-yl}amino)ethyl]phenol]",1 to 10

# Second part, the compound after the results:
row,IC50 [nM],Compound
1,1 to 10,"Cc1cc2c(-c3ccc(C(F)(F)F)cc3C(F)(F)F)nnc(N[C@@H]3CCCN(C)C3)n2c1 [Compound 109, 1-[2,4-bis(trifluoromethyl)phenyl]-7-methyl-N-[(3R)-1-methylpiperidin-3-yl]pyrrolo[1,2-d][1,2,4]triazin-4-amine]"
2,1 to 10,"CCN1C[C@H](F)C[C@@H](Nc2nnc(-c3ccc(C(F)(F)F)cc3C(F)(F)F)c3c(F)ccn23)C1 [Compound 32, 1-[2,4-bis(trifluoromethyl)phenyl]-N-[(3R,5R)-1-ethyl-5-fluoropiperidin-3-yl]-8-fluoropyrrolo[1,2-d][1,2,4]triazin-4-amine]"
3,10 to 100,"COc1ccc(-c2nnc(NC[C@H](C)O)n3cccc23)c(OC(F)(F)F)c1 [Compound 65, (2S)-1-({1-[4-methoxy-2-(trifluoromethoxy)phenyl]pyrrolo[1,2-d][1,2,4]triazin-4-yl}amino)propan-2-ol]"
4,1 to 10,"O[C@@H]1CCCC[C@H]1Nc1nnc(-c2ccc(Br)cc2OC(F)F)c2cncn12 [Compound 306, (1R,2R)-2-({1-[4-bromo-2-(difluoromethoxy)phenyl]imidazo[1,5-d][1,2,4]triazin-4-yl}amino)cyclohexan-1-ol]"
5,1 to 10,"COc1ccc(-c2nnc(N[C@@H]3CCCN(C)C3)n3cncc23)c(OC(F)F)c1 [Compound 216, 1-[2-(difluoromethoxy)-4-methoxyphenyl]-N-[(3R)-1-methylpiperidin-3-yl]imidazo[1,5-d][1,2,4]triazin-4-amine]"
6,1 to 10,"C[C@]1(O)CCCC[C@@H]1Nc1nnc(-c2ccc(C(F)(F)F)cc2CC(F)(F)F)c2cncn12 (racemic) [Compound 283, (1S,2S)-1-methyl-2-({1-[2-(2,2,2-trifluoroethyl)-4-(trifluoromethyl)phenyl]imidazo[1,5-d][1,2,4]triazin-4-yl}amino)cyclohexan-1-ol AND (1R,2R)-1-methyl-2-({1-[2-(2,2,2-trifluoroethyl)-4-(trifluoromethyl)phenyl]imidazo[1,5-d][1,2,4]triazin-4-yl}amino)cyclohexan-1-ol]"
7,1 to 10,"COc1ccc(-c2nnc(N[C@H]3C[C@@](C)(O)C3)n3cncc23)c(C(F)(F)F)c1 [Compound 214, (1s,3s)-3-({1-[4-methoxy-2-(trifluoromethyl)phenyl]imidazo[1,5-d][1,2,4]triazin-4-yl}amino)-1-methylcyclobutan-1-ol]"
8,< 1,"CCN1CCC[C@@H](Nc2nnc(-c3ccc(OC(F)F)cc3OC(F)(F)F)c3cccn23)C1 [Compound 85, 1-[4-(difluoromethoxy)-2-(trifluoromethoxy)phenyl]-N-[(3R)-1-ethylpiperidin-3-yl]pyrrolo[1,2-d][1,2,4]triazin-4-amine]"
9,1 to 10,"CCN1CCC[C@@H](Nc2nnc(-c3ccc(SC)cc3OC(F)(F)F)c3cc(C)nn23)C1 [Compound 366, N-[(3R)-1-ethylpiperidin-3-yl]-2-methyl-4-[4-(methylsulfanyl)-2-(trifluoromethoxy)phenyl]pyrazolo[1,5-d][1,2,4]triazin-7-amine]"
10,1 to 10,"O=C1NCCC1Nc1nnc(-c2ccc(OC(F)F)cc2OC(F)(F)F)c2cccn12 (stereo not drawn) [Compound 154, 3-({1-[4-(difluoromethoxy)-2-(trifluoromethoxy)phenyl]pyrrolo[1,2-d][1,2,4]triazin-4-yl}amino)pyrrolidin-2-one]"
11,1 to 10,"O=C1NCCC1Nc1nnc(-c2ccc(OC(F)F)cc2OC(F)(F)F)c2cncn12 (stereo not drawn) [Compound 260, 3-({1-[4-(difluoromethoxy)-2-(trifluoromethoxy)phenyl]imidazo[1,5-d][1,2,4]triazin-4-yl}amino)pyrrolidin-2-one]"
